In patent publication US20080311048A1, “Imaging Agent” (ISIS INNOVATION LTD., priority 2005, published 2008):

Tested on: left hemisphere of rat brains injected with Interleukin-1β (selectin expression)
Assay: MRI scans of rat brains after interleukin-1β injection into the left hemisphere
Conditions: in vivo
Method: The magnetic particles of the present invention can be used in a number of different methods. In particular, sugars conjugated to ultra small super paramagnetic iron oxide provide more sensitive detection of cerebroendothelial cell activation than know contrast agents such as Gd-DTPA-B(sLEex)A. In particular conjugated magnetic particles in accordance with the present invention were used in MRI scans. Interleukin-1β was injected into the left hemisphere of rat brains. Interleukin beta was used to induce an inflammatory response in the left hemispheres. All samples were subjected to MRI scans. Controls were carried out using Gd alone, or superparamagnetic particles alone. Two different conjugates, one of which having a disaccharide and one of which having Sialyl Lewis X, both in accordance with the present invention were tested. […] The control with Gd (shown in FIG. 2) confirmed that there was no breakdown of the blood brain barrier. […] Thus, the conjugates of the present invention allowed imaging of the areas of the brain that had been injected with interleukin-1β, and which would be expected to show greater levels of selectin expression.

Substance: Sialyl Lewis X
- MRI scan: asymmetry between left and right cranial hemispheres: asymmetry, being darker in the left hemisphere than the right
